# Target: Acetylcholinesterase (Electrophorus electricus, UniProt O42275)
# Sequence (O42275 whole entry): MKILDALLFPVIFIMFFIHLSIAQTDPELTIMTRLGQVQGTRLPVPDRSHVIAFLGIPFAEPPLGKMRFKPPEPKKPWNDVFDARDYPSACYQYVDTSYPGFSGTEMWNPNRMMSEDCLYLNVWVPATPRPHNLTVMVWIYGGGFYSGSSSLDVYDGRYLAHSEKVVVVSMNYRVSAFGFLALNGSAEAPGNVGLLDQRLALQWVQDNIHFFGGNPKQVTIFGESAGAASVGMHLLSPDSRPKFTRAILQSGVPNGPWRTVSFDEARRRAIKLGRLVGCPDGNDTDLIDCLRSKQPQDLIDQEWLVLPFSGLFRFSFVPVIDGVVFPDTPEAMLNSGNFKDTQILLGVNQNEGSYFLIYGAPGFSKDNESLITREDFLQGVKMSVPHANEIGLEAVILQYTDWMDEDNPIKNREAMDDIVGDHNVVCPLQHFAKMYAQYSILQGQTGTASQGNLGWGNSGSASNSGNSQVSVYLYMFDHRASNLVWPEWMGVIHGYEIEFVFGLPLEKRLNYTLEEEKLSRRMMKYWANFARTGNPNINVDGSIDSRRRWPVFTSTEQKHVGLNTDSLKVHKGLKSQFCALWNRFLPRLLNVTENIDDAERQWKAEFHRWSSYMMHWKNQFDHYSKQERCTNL
# Description: Inhibition of Electrophorus electricus AChE by Ellman's method
row,SMILES,IC50
1,O=C(OCCCCN1CCC(OC(c2ccccc2)c2ccccc2)CC1)c1cccc(F)c1,7.72 µM
2,O=C(OCCCCN1CCC(OC(c2ccccc2)c2ccccc2)CC1)c1ccc(Cl)cc1,0.31 µM

# Target: Cholinesterase (Homo sapiens, UniProt P06276)
# Sequence (P06276 whole entry): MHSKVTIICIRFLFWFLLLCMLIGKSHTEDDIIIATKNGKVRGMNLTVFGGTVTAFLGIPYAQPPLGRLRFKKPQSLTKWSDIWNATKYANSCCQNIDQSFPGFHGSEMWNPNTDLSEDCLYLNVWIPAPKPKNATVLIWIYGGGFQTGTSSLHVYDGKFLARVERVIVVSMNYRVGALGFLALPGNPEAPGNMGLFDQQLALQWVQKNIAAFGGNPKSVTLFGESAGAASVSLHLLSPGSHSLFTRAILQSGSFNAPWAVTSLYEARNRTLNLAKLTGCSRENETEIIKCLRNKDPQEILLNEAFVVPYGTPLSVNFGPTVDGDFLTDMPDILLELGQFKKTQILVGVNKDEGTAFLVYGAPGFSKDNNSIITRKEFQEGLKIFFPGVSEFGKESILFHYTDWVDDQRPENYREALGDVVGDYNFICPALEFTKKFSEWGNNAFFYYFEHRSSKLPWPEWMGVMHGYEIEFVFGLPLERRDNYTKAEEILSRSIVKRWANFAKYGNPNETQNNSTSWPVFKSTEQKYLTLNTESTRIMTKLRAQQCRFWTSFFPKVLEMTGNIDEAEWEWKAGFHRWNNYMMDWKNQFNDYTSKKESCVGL
# Description: Inhibition of human BChE by Ellman's method
row,SMILES,IC50
1,O=C(OCCCCN1CCC(OCc2ccccc2)CC1)c1cccc(Cl)c1,1.35 µM
2,O=C(Nc1ccc(Cl)cc1)OCCCCN1CCC(OC(c2ccccc2)c2ccccc2)CC1,13.7 µM
3,CC(C)c1ccc(C(=O)OCCCCN2CCC(OCc3ccccc3)CC2)cc1,10.8 µM
4,CC(C)(C)c1ccc(C(=O)OCCCCN2CCC(OCc3ccccc3)CC2)cc1,15.2 µM
5,O=C(OCCCCN1CCC(OCc2ccccc2)CC1)c1ccccc1,1.89 µM
6,O=C(OCCCCN1CCC(OCc2ccccc2)CC1)c1ccc(F)cc1,0.56 µM
7,O=C(Nc1ccc(F)cc1)OCCCCN1CCC(OCc2ccccc2)CC1,0.78 µM
8,O=C(Nc1ccc(Cl)cc1)OCCCCN1CCC(OCc2ccccc2)CC1,0.25 µM
9,O=C(OCCCCN1CCC(OCc2ccccc2)CC1)c1cccc(F)c1,1.58 µM
10,O=C(Nc1ccc(F)cc1)OCCCCN1CCC(OC(c2ccccc2)c2ccccc2)CC1,15.7 µM
11,O=C(OCCCCN1CCC(OCc2ccccc2)CC1)c1ccc(Cl)cc1,3.52 µM
12,O=C(OCCCCN1CCC(OC(c2ccccc2)c2ccccc2)CC1)c1ccc(F)cc1,22.2 µM
13,O=C(OCCCCN1CCC(OC(c2ccccc2)c2ccccc2)CC1)c1cccc(F)c1,31.5 µM
14,O=C(OCCCCN1CCC(OCc2ccccc2)CC1)c1ccc([N+](=O)[O-])cc1,5.23 µM
15,O=C(OCCCCN1CCC(OC(c2ccccc2)c2ccccc2)CC1)c1ccc(Cl)cc1,38.4 µM
16,O=C(OCCCCN1CCC(OC(c2ccccc2)c2ccccc2)CC1)c1ccc([N+](=O)[O-])cc1,26.8 µM
17,CC(C)c1ccc(C(=O)OCCCCN2CCC(OC(c3ccccc3)c3ccccc3)CC2)cc1,23.2 µM
18,CC(C)(C)c1ccc(C(=O)OCCCCN2CCC(OC(c3ccccc3)c3ccccc3)CC2)cc1,78.9 µM
19,O=C(OCCCCN1CCC(OC(c2ccccc2)c2ccccc2)CC1)c1ccccc1,31.5 µM
20,O=C(OCCCCN1CCC(OC(c2ccccc2)c2ccccc2)CC1)c1cccc(Cl)c1,57.9 µM

# From ChEMBL document CHEMBL1143763, “Synthesis, in vitro assay, and molecular modeling of new piperidine derivatives having dual inhibitory potency against acetylcholinesterase and Abeta1-42 aggregation for Alzheimer's disease therapeutics” (Bioorg Med Chem, 2007)
